This passage reports activity coefficient results from the NIST ThermoML archive (doi:10.1016/j.fluid.2006.02.022).

Where “and” joins values, the source holds several entries; their conditions need not be identical. Equal values may be shown once. ± gives the expanded uncertainty stated by the source.

The nature of this data set: activity coefficient (dimensionless); of the first substance listed, at infinite dilution; xn = mol fraction of the nth substance listed. As to conditions: 101 kPa, Liquid, Chromatography, x1 = 0.

With `COC(C)(C)CC(C)(C)C` [methyl 1,1,3,3-tetramethylbutyl ether] + O, the activity coefficient was 47100 and 126000 (318.15 K); 35500 and 76900 (333.15 K).
In the case of `CCCCS` [1-butanethiol] + O, the activity coefficient worked out at 6030 ± 490 (288.15 K); 6040 ± 530 (298.15 K); 5830 ± 570 (308.15 K); 5340 ± 620 (318.15 K); 4140 ± 620 (333.15 K).
For the molecule `CCOC(C)(C)CC` [1,1-dimethylpropyl ethyl ether] + O, the activity coefficient reads like this: (288.15 K) 1350 ± 100; (298.15 K) 1990 ± 140; (308.15 K) 2530 ± 190; (318.15 K) 3320 ± 350.
The corresponding values for `Cc1ccccc1` [toluene] + O are 8980 ± 950, 8950 ± 950, 8780 ± 930 and 8290 ± 880.
As for `c1ccsc1` [thiophene] + O, the activity coefficient by setting is: (288.15 K) 1260 ± 100; (298.15 K) 1270 ± 96; (308.15 K) 1310 ± 100; (318.15 K) 1290 ± 110; (333.15 K) 1100 ± 100.
Turning to `CCCS` [1-propanethiol] + O, the activity coefficient is, setting by setting: (288.15 K) 1420 ± 110; (298.15 K) 1500 ± 120; (308.15 K) 1460 ± 130; (318.15 K) 1450 ± 150; (333.15 K) 1310 ± 160.
`CC(C)S` [2-propanethiol] + O: the activity coefficient by setting is: (288.15 K) 1120 ± 90; (298.15 K) 1140 ± 100; (308.15 K) 1190 ± 120; (318.15 K) 1130 ± 130.
For `CCC(C)(C)OC` [2-methoxy-2-methylbutane] + O, in that order: 390 ± 39, 529 ± 44, 725 ± 55 and 1070 ± 87.
For `COC(C)(C)C` [2-methoxy-2-methylpropane] + O, in that order: 127 ± 13, 139 ± 11, 180 ± 14 and 234 ± 18.
Consider `CCOC(C)(C)C` [2-ethoxy-2-methylpropane] + O, for which the activity coefficient came to 325 ± 22 (288.15 K), 514 ± 35 (298.15 K), 659 ± 46 (308.15 K) and 873 ± 82 (318.15 K).
Turning to `CCOC(C)(C)CC(C)(C)C` [ethyl 1,1,3,3-tetramethylbutyl ether] + O, the activity coefficient was found to be 111000 ± 9700 (288.15 K); 143000 ± 16000 (298.15 K); 149000 ± 23000 (308.15 K); 126000 ± 27000 (318.15 K); 76900 ± 29000 (333.15 K).
